Reference: US20060019410A1, “Apparatus, kits and methods for evaluating binding interactions, for detecting and quantifying binding molecules, and for sample preparation” (Qualyst, Inc., priority 2004, published 2006)

Assays:
[1] = target: T1, HSA (Homo sapiens, UniProt P02768); experiment: percent recovery from HSA with the 96-well ACCUPRO DCC device; assay type: in vitro ADME
Procedure: Chemical Analysis. […] For a given sample, the peak areas of the particular drug and its internal standard are measured and a ratio of these two values is determined. The peak area ratio (PAR) of the (+) DCC-extracted sample is divided by its corresponding (−) DCC extracted sample PAR to determine a percent recovery value. This recovery value is not a % HSA bound value.
Preparation of DCC plate. Prepare a DCC filter plate with 5 mg and 10 mg bed sizes as described in Example 1 and 3.
Set-Up of Incubation Study.

[2] = target: T1, HSA; conditions: 1 μM drug + 1 μM DS in HSA; 10 mg DCC bed
Procedure: Set-Up of Incubation Study. […] Allow samples to sit at room temperature for one hour.
DCC Extraction Procedure; Protein Precipitation Procedure; Final Sample Preparation. Performed as described in Example 1 and 3.
Chemical Analysis. The analysis of DS and the internal standard is conducted with liquid chromatography coupled to mass spectrometry with electrospray ionization. For a given sample, the peak area of the DS and the internal standard are measured and a ratio (PAR) of these two values is determined.

[3] = system: AAG; conditions: reported; cited from earlier work
[4] = reported; cited from earlier work

T1 sequence (P02768 25-609): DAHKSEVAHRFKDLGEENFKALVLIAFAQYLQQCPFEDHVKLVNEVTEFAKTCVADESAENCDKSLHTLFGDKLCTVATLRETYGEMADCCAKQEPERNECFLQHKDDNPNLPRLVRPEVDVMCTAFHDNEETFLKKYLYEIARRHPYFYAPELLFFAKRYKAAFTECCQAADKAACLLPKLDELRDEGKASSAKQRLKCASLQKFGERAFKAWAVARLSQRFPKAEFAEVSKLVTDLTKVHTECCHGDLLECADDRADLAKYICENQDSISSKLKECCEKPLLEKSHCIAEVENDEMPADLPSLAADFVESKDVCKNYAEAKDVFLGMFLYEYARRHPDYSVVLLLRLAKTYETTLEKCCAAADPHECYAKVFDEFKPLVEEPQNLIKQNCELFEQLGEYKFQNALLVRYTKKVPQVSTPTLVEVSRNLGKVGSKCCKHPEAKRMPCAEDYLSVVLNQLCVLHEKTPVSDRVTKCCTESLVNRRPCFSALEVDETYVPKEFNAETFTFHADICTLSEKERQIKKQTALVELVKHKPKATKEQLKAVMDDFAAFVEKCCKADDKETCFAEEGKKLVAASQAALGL

With `O=C(c1ccccc1)c1ccc2n1CCC2C(=O)O` (centres unmarked) [Ketorolac] as the compound, how does the “percent recovery (relative ranking)” value ([1]; HSA, naproxen versus ketorolac) read?
Its value is “lower percent recovery”.

And the “percent recovery from HSA” value ([1]; drug at 1 μM, 5 mg and 10 mg DCC bed, compared with the usual concentrations (217 μM and 0.5 μM))?
Its value is “comparable to values obtained above”.

And the “DS (dansylsarcosine) PAR in final sample preparation” value [2]?
The value was “higher PAR”.

What does the source list for `CN(C)CCCN1c2ccccc2Sc2ccc(Cl)cc21` [Chlorpromazine]?
affinity to AAG / HSA [3]: high affinity to AAG and not HSA; plasma bound [4]: 95-98%
